Experimental data: patent publication US20220064196A1, “EGFR Inhibitors, Compositions and Methods Thereof” (Betta Pharmaceuticals Co., Ltd., priority 2019, published 2022)
Counter-ions that a name gives are not always drawn. Like-named read-outs stand apart in the source and are kept apart here.

Legend:
[1] = Pharmacokinetic assay, oral administration; format: in vivo; conditions: rat, male SD rats, p.o. 5 mg/kg, plasma, formulation differs per row
Experimental: Test 5 Pharmacokinetic Assay
Male SD rats, oral administration (intragastric administration), 3 in each group. Animals administered by gavage were fasted overnight before the experiment, and the fasting time was from at least 12 hours before administration to 4 hours after administration. The blood was collected using the orbital vein. Time of blood collection by oral administration: 15 min, 30 min, 1 h, 2 h, 4 h, 7 h, 24 h. The blood collection volume was 300 uL, and after anticoagulation with 2.0% EDTA, the blood was centrifuged at 4000 rpm for 5 min, and the blood plasma was taken for about 100 uL, and placed in −20° C. for examination. The plasma sample was analyzed using liquid chromatography tandem mass spectrometry (LC-MS/MS). Plasma concentration-time data for individual animals were analyzed using WinNonlin (V4.1, Pharsight) software with a non-compartmental model and the pharmacokinetic parameters of the test compounds were calculated.

EGFR L858R/T790M/C797S = EGFR L858R/T790M/C797S (Homo sapiens, UniProt P00533, C797S/L858R/T790M); assay: Kinase assay (mobility shift), EGFR L858R/T790M/C797S; format: biochemical; conditions: numeric values
Chain of EGFR L858R/T790M/C797S (P00533 25-1210 T790M/C797S/L858R): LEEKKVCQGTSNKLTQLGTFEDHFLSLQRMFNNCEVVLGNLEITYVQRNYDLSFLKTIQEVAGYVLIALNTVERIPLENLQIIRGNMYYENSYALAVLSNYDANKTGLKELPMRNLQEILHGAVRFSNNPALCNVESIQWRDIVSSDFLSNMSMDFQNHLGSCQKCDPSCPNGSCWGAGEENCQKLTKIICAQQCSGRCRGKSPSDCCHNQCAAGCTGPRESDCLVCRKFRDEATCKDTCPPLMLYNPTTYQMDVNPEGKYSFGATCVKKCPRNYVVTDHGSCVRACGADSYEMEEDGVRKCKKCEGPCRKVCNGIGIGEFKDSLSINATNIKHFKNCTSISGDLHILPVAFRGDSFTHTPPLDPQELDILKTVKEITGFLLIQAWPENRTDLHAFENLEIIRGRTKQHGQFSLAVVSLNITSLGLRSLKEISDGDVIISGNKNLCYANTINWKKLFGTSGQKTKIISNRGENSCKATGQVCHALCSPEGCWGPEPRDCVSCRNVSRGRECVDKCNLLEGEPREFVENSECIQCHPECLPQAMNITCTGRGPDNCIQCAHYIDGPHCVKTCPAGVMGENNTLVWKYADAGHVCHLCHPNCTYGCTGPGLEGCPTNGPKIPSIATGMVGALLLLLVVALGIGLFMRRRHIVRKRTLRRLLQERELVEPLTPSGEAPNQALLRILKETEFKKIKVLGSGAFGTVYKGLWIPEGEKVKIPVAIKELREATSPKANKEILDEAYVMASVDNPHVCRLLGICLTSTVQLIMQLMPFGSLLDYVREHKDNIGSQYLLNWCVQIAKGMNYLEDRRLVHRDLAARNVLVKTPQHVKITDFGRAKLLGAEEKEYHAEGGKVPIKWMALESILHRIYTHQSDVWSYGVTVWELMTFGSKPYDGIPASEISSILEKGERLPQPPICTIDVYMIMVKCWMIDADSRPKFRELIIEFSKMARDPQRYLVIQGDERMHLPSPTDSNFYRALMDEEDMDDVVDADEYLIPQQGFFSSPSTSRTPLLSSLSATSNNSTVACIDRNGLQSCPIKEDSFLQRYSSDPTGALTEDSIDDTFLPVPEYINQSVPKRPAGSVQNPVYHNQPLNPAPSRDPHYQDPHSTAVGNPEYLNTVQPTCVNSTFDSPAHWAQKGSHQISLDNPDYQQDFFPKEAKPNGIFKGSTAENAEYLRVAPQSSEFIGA
Experimental: [Worded in the source for another variant; this variant is reported under the same test.] Test 1 Kinase Assay for EGFR Del19/T790M/C797S and EGFR Wildtype
Enzyme reaction protocol are as follows:
1. Preparing 1* Kinase buffer as followed.
2. Preparing Compound Concentration Gradient: Compounds were tested at a concentration of 300 nM, diluted to 100-fold final concentration in 100% DMSO solution in 96-well plates, and compounds were diluted 3 times with Precision, 10 concentrations. Each concentration of the compound was then further diluted to a 5-fold final concentration of the intermediate dilution solution using 1* Kinase buffer.
3.5 μL of each of the prepared intermediate dilution compounds was separately added to the compound wells of the 384-well plate, and each concentration was tested for duplicate wells; 5 μL of 5% DMSO was added to the negative control wells and the positive control wells, respectively.
4. 2.5-fold final concentration of the kinase solution was prepared using 1*Kinase buffer.
5. Add 10 μL of 2.5-fold final concentration of kinase solution to the compound well and positive control well; add 10 μL of 1*Kinase buffer to the negative control well.
6. Centrifuge at 1000 rpm for 30 seconds, shake the reaction plate and incubate for 10 minutes at room temperature.
7. A mixed solution of 2.5 times the final concentration of ATP and Kinase substrate (5-FAM-EEPLYWSFPAKKK-CONH2) was prepared using 1*Kinase buffer.
8. 10 μL of a 2.5-fold final concentration of a mixed solution of ATP and a substrate was added to initiate the reaction.
9. Centrifuge the 384-well plate at 1000 rpm for 30 seconds, mix by shaking, and incubate at room temperature for the corresponding time.
10. Add 30 μL of the stop solution to stop the kinase reaction, centrifuge at 1000 rpm for 30 seconds, and mix by shaking.
11. Read the conversion rate with Caliper EZ Reader.
Convert conversion values to inhibition values:
Percent inhibition 32 (max-conversion)/(max-min)*100.
“max” stands for the mean value of the positive control well ratio; “min” stands for the mean value of the negative control well.
Fit the data in log(inhibitor) vs. response Variable slope of GraphPad Prism 5 to obtain IC50 values.
Equation used is: Y=Bottom+(Top-Bottom)/(1+(IC50/X)^HillSlope)

Ba/F3-Del19/T790M/C797S = Ba/F3-Del19/T790M/C797S (Homo sapiens, UniProt P00533, T790M/C797S, cells depend on it, form not given); assay: Ba/F3-Del19/T790M/C797S cells proliferation assay (CellTiter Glo); format: cell-based; conditions: cell proliferation, 72 h, read-out: Ba/F3-Del19/T790M/C797S IC50
Chain of Ba/F3-Del19/T790M/C797S (P00533 with tags, fused parts or gaps DEL746-750/T790M/C797S, form open): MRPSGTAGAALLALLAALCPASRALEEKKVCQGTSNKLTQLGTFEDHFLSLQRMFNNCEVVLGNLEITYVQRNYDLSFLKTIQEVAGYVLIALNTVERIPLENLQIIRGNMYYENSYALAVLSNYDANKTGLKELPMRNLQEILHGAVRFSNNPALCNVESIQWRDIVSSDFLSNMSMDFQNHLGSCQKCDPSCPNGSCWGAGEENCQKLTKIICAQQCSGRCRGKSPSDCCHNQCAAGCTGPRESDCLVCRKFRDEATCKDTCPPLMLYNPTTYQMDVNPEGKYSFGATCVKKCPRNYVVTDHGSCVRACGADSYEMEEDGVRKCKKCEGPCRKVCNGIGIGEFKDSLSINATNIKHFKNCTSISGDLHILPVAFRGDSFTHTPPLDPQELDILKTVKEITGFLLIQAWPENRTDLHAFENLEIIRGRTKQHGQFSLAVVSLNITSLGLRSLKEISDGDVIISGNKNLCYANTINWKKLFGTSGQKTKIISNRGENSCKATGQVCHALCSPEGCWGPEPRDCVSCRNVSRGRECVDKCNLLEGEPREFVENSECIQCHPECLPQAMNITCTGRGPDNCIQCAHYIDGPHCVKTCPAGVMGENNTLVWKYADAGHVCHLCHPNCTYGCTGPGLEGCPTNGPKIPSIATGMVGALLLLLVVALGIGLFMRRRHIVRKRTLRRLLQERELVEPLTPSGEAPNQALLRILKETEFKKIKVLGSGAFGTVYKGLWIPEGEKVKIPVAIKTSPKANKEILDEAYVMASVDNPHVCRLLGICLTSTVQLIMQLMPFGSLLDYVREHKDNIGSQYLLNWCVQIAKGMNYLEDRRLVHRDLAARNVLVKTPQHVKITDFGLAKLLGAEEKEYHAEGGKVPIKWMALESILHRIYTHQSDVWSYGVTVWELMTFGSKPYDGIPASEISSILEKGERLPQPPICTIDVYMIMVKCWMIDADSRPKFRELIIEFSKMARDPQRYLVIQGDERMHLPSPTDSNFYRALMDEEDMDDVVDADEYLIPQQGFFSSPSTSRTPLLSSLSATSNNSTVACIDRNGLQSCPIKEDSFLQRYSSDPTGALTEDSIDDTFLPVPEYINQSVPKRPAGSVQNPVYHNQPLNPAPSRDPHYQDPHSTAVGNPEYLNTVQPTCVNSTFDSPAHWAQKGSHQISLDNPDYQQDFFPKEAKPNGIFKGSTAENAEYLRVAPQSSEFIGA
Experimental: (§1) a) The medium was preheated in a 37°0 C. water bath in advance.
(§2) b) Remove the cryogenic vials from the liquid nitrogen tank, quickly put it into a 37° C. water bath, and completely melt it in 1 min.
(§3) c) Transfer the cell suspension to a 15 mL centrifuge tube containing 8 mL medium, centrifuge 1000 rpm, 5 min.
(§4) d) Discard the supernatant, resuspend the cells in 1 mL medium, and transfer to a 75 cm^2 flask containing 15 mL medium, culture the cells in an incubator at 37° C., 5% CO2.
(§5) a) The medium was preheated in a 37° C. water bath in advance.
(§6) b) Collect cell to a 15 mL centrifuged tube, centrifuge at 1000 rpm for 5 min. Discard the supernatant, count, and make the cell density at 1×10^4 cells/mL, then place it in a 37° C., 5% CO2 incubator.
(§7) a) The test compound (20 mM stock solution) was diluted to 200uM with 100% DMSO as starting concentration then 3-fold serial diluted with “9+0” concentrations. in a 96-well dilution plate (Cat # P-05525, Labcyte);
(§8) b) The above compound solution was diluted 1:20 times with culture medium to prepare a 10 fold working solution;
(§9) a) Take cells in log phase growth, centrifuge at 1000 rpm for 5 min, then resuspend the cells with culture medium, then count cells;
(§10) b) Cells were seeded to 96-well cell culture plate with density at 2000 cells/well;
(§11) a) Compounds prepared at step 2 were added to cell plate with 15 μL per well, the final concentrations were 1000,333, 111.1, 37,12.3, 4.1, 1.4, 0.5, 0.2 and 0 nM, and the final concentration of DMSO was 0.5%. The blank control well was a culture medium (0.5% DMSO);
(§12) b) The cells were incubated for an additional 72 h in the incubator.
(§13) a) Remove the 96-well cell culture plate and add 50 μl of CTG reagent (CellTiter Glo kit, promega, Cat # G7573).
(§14) b) Plate was shaked for 2 min and then let it cool for 10 min at room temperature.
(§15) c) The Luminescence signal value was read using a PerkinElmer reader. Experimental data analysis
(§16) Data were analyzed using GraphPad Prism 6.0 software to obtain a fitted curve of compound activity.
(§17) Fit the Compound IC50 from non-linear regression equation:
(§18) Y=Bottom+(Top-Bottom)/(1+10((LogIC50-X)×Hill Slope));
(§19) X: The log of the concentration of the compound; Y: Luminescence value.
(§20) The cells proliferation assay results are expressed with IC50, shown as Table 2.

Ba/F3-L858R/T790M/C797S = Ba/F3-L858R/T790M/C797S (Homo sapiens, UniProt P00533, T790M/C797S/L858R, cells depend on it); assay: Ba/F3-L858R/T790M/C797S cells proliferation assay (CellTiter Glo); format: cell-based; conditions: cell proliferation, 72 h, read-out: Ba/F3-L858R/T790M/C797S IC50
Chain of Ba/F3-L858R/T790M/C797S (P00533 whole entry T790M/C797S/L858R): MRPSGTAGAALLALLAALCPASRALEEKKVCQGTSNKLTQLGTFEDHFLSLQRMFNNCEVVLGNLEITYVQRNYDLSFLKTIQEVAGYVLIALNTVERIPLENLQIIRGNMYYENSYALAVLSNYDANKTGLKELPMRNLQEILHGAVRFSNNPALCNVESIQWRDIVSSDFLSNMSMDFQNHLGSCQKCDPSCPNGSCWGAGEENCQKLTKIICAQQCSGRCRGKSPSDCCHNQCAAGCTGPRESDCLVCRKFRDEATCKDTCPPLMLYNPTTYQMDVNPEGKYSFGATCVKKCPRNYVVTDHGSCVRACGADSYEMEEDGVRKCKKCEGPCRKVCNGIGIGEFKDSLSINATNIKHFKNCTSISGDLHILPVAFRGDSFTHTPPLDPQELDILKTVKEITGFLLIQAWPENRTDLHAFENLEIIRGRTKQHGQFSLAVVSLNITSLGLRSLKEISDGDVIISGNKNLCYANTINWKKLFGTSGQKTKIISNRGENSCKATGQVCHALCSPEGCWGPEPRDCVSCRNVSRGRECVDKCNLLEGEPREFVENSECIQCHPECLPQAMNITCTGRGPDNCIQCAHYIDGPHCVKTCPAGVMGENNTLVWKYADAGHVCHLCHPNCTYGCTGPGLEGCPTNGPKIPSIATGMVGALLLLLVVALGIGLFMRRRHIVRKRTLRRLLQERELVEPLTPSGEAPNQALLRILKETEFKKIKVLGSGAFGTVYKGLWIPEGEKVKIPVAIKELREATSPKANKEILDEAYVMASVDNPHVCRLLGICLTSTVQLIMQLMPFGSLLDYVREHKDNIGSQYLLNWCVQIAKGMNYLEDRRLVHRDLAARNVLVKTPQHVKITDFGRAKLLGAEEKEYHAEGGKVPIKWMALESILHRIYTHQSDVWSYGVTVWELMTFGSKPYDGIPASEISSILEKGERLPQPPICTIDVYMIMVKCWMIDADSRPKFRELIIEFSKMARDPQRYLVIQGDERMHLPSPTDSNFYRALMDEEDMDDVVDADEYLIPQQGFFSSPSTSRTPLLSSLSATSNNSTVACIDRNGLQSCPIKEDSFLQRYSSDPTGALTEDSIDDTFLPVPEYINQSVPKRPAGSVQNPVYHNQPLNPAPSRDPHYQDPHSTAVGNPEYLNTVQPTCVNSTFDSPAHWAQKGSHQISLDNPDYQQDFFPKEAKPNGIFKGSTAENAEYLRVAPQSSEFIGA
Experimental: as §1, §2, §3, §4, §5, §6, §7, §8, §9, §10, §11, §12, §13, §14, §15, §16, §17, §18, §19, §20

Compound	IC50 (EGFR L858R/T790M/C797S) [nM]	GI50 (Ba/F3-Del19/T790M/C797S; class symbols) [nM]	GI50 (Ba/F3-L858R/T790M/C797S; class symbols) [nM]	further results
CCN1CC2(C1)CN(c1ccc(Nc3ncc(Cl)c(Nc4ccccc4P(C)(C)=O)n3)cc1C)C2 [Comparative compound B, (2-((5-chloro-2-((4-(6-ethyl-2,6-diazaspiro[3.3]heptan-2-yl)-3-methylphenyl)amino)pyrimidin-4-yl)amino)phenyl)dimethylphosphine oxide, reference compound]	–	–	–	AUC(0-t) [1]: 202 ng·h/mL; Cmax [1]: 67.2 ng/mL; Tmax [1]: 2.75 h; half-life [1]: 4.09 h
Cc1cc(Nc2ncc(Cl)c(Nc3ccccc3P(C)(C)=O)n2)ccc1N1CC2(CCC(N)CC2)C1 [Example 3, (2-((2-((4-(7-amino-2-azaspiro[3.5]nonan-2-yl)-3-methylphenyl)amino)-5-chloropyrimidin-4-yl)amino)phenyl)dimethylphosphine oxide]	2.8	10 to 50	10 to 50	–
CN(C)C1CCC2(CC1)CN(c1ccc(Nc3ncc(Cl)c(Nc4ccccc4P(C)(C)=O)n3)cc1C1CC1)C2 [Example 5, (2-((5-chloro-2-((3-cyclopropyl-4-(7-(dimethylamino)-2-azaspiro[3.5]nonan-2-yl)phenyl)amino)pyrimidin-4-yl)amino)phenyl)dimethylphosphine oxide]	1.5	10 to 50	10 to 50	–
CP(C)(=O)c1ccccc1Nc1ccnc(Nc2ccc(N3CCC4(CC3)CC(N)C4)c(Cl)c2)n1 [Example 9, (2-((2-((4-(2-amino-7-azaspiro[3.5]nonan-7-yl)-3-chlorophenyl)amino)pyrimidin-4-yl)amino)phenyl)dimethylphosphine oxide]	11	> 50	> 50	–
CP(C)(=O)c1ccccc1Nc1nc(Nc2ccc(N3CC4(CCC(N)CC4)C3)c(Cl)c2)ncc1Cl [Example 11, (2-((2-((4-(7-amino-2-azaspiro[3.5]nonan-2-yl)-3-chlorophenyl)amino)-5-chloropyrimidin-4-yl)amino)phenyl)dimethylphosphine oxide]	2.6	–	10 to 50	GI50 (Ba/F3-Del19/T790M/C797S; numeric values): 26.3 nM
CP(C)(=O)c1ccccc1Nc1nc(Nc2ccc(N3CCC4(CC3)CC(N)C4)cc2)ncc1Cl [Example 16, (2-((2-((4-(2-amino-7-azaspiro[3.5]nonan-7-yl)phenyl)amino)-5-chloropyrimidin-4-yl)amino)phenyl)dimethylphosphine oxide hydrochloride]	–	–	–	GI50 (Ba/F3-Del19/T790M/C797S; numeric values): 8 nM; GI50 (Ba/F3-L858R/T790M/C797S; numeric values): 6.9 nM
CP(C)(=O)c1ccccc1Nc1nc(Nc2ccc(N3CCC4(CC3)CC(N)C4)c(C(F)(F)F)c2)ncc1Cl [Example 18, (2-((2-((4-(2-amino-7-azaspiro[3.5]nonan-7-yl)-3-(trifluoromethyl)phenyl)amino)-5-chloropyrimidin-4-yl)amino)phenyl)dimethylphosphine oxide]	16	10 to 50	10 to 50	–
CNC1CC2(CCN(c3ccc(Nc4ncc(Cl)c(Nc5ccccc5P(C)(C)=O)n4)cc3Cl)CC2)C1 [Example 20, (2-((5-chloro-2-((3-chloro-4-(2-(methylamino)-7-azaspiro[3.5]nonan-7-yl)phenyl)amino)pyrimidin-4-yl)amino)phenyl)dimethylphosphine oxide]	2.3	10 to 50	10 to 50	–
